According to ChEMBL document CHEMBL4049417, “Design and synthesis of novel 6-aryl substituted 4-anilinequinazoline derivatives as potential PI3Kδ inhibitors” (Bioorg Med Chem Lett, 2017):

Experiments:
Ramos = test: Antiproliferative activity against human Ramos cells after 72 hrs by MTT assay; assay type: functional, cell-based
[1] = Antiproliferative activity against human RPMI8266 cells after 72 hrs by MTT assay; assay type: functional, cell-based; conditions: RPMI8266, 72 h
Raji = test: Antiproliferative activity against human Raji cells after 72 hrs by MTT assay; assay type: functional, cell-based
[2] = molecular target: PI3-kinase p110-delta/p85-alpha (Homo sapiens) (UniProt P27986+O00329); test: Inhibition of PI3K p110delta/p85alpha (unknown origin) at 100 nM using lipid substrate after 40 mins by kinase-glo luminescence assay relative to control; assay type: protein-complex assay
[3] = molecular target: PI3-kinase p110-delta/p85-alpha (Homo sapiens, UniProt O00329); test: Inhibition of PI3K p110delta/p85alpha (unknown origin) using lipid substrate after 40 mins by kinase-glo luminescence assay; assay type: protein-complex assay
Chain of PI3-kinase p110-delta/p85-alpha (P27986 whole entry): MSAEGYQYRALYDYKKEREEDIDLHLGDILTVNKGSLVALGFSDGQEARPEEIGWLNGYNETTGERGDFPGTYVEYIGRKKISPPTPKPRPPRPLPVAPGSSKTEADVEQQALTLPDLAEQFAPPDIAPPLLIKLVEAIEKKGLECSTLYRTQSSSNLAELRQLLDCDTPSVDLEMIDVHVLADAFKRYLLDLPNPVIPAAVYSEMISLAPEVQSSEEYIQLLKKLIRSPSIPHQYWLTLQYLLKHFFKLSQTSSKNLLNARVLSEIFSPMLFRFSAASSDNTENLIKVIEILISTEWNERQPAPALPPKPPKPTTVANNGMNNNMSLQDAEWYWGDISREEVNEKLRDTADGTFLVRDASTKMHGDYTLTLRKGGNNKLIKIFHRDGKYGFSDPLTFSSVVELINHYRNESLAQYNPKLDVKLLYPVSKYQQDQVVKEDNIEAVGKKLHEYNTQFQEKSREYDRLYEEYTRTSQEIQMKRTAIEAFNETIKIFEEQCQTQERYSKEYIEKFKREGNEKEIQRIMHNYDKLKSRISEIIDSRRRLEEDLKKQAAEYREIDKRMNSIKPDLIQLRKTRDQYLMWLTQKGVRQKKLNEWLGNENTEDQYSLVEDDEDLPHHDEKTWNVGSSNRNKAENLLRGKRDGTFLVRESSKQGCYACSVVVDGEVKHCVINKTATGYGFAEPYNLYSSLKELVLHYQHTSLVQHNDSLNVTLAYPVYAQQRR
Chain of PI3-kinase p110-delta/p85-alpha (O00329 whole entry): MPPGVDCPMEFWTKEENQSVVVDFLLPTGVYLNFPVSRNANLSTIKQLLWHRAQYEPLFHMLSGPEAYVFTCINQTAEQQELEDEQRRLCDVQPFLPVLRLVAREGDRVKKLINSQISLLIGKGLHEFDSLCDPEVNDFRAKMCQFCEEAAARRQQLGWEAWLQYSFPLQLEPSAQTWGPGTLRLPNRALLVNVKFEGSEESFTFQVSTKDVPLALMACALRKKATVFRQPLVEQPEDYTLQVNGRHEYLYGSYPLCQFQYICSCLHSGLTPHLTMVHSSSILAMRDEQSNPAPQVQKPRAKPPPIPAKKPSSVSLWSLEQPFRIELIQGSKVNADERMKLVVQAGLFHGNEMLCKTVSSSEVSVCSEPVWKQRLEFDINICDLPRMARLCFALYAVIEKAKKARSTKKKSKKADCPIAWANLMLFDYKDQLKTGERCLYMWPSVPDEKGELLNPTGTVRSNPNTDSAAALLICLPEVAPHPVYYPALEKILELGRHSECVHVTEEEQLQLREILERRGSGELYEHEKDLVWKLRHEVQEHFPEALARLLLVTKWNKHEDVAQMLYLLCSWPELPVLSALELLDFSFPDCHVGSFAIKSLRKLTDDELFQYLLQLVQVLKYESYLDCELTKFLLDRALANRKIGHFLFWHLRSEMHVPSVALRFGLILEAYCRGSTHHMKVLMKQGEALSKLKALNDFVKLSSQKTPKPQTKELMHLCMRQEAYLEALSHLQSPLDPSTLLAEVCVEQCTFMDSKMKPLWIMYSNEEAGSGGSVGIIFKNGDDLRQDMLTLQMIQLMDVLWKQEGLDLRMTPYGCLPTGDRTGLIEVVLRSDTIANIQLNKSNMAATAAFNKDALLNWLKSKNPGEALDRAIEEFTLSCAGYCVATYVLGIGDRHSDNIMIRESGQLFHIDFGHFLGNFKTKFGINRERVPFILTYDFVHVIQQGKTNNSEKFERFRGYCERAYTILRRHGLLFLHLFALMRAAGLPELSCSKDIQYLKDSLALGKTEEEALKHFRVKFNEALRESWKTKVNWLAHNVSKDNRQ

IC50 (Ramos) [nM] | IC50 (Raji) [nM] | inhibition [2] [%] | IC50 [3] [nM] | Compound | IC50 [1] [nM]
1060 | 950 | 91 | 9.7 | NC(=O)c1cc(-c2ccc3ncnc(Nc4cccc(C(=O)N5CCOCC5)c4)c3c2)cc(C(F)(F)F)c1 | 1100
> 10000 | > 10000 | 93 | 9.3 | COc1ncc(-c2ccc3ncnc(Nc4cccc(C(=O)N5CCOCC5)c4)c3c2)cc1C#N | 6610
 |  | 33 |  | COc1ccc(-c2ccc3ncnc(Nc4cccc(C(=O)N5CCN(C)CC5)c4)c3c2)cc1C(N)=O | 
 |  | 21 |  | COc1ccc(-c2ccc3ncnc(Nc4cccc(C(=O)N5CCOCC5)c4)c3c2)cc1C(N)=O | 
 |  | 49 |  | COc1c(C(N)=O)cc(-c2ccc3ncnc(Nc4cccc(C(=O)N5CCOCC5)c4)c3c2)cc1[N+](=O)[O-] | 
 |  | 12 |  | COc1ccc(-c2ccc3ncnc(Nc4ccc(C(=O)N5CCN(C)CC5)cc4)c3c2)cc1C(N)=O | 

Second part, the compound before the results:

Compound | IC50 (Ramos) [nM] | IC50 (Raji) [nM] | inhibition [2] [%] | IC50 [3] [nM] | IC50 [1] [nM]
CC[C@H](Nc1ncnc2[nH]cnc12)c1nc2cccc(F)c2c(=O)n1-c1ccccc1 [IDELALISIB] | > 10000 | 9950 | 96 |  | 5490
COc1ccc(-c2ccc3ncnc(Nc4ccc(C(=O)N5CCOCC5)cc4)c3c2)cc1C(N)=O |  |  | 0 |  | 
COc1cc(C(N)=O)cc(-c2ccc3ncnc(Nc4cccc(C(=O)N5CCOCC5)c4)c3c2)c1 |  |  | 61 |  | 
COc1ccc(-c2ccc3nccc(Nc4cccc(C(=O)N5CCN(C)CC5)c4)c3c2)cc1C(N)=O |  |  | 0 |  | 
COc1ccc(-c2ccc3ncnc(Nc4cccc(C(=O)N5CCN(C)CC5)c4)c3c2)cn1 |  |  | 71 |  | 
COc1ccc(-c2ccc3nccc(Nc4cccc(C(=O)N5CCN(C)CC5)c4)c3c2)cn1 |  |  | 23 |  | 
COc1ccc(-c2ccc3ncnc(Nc4cccc(C(=O)N5CCOCC5)c4)c3c2)cn1 |  |  | 87 |  | 
COc1ccc(-c2ccc3ncnc(Nc4ccc(C(=O)N5CCOCC5)cc4)c3c2)cn1 |  |  | 61 |  | 
